The source of these data is EPA's ToxRefDB 2.

Each structure is given as a SMILES string.

The test system of data set [1] is rat. The settings on record: Subchronic oral toxicity in rodents, other, Feed, dose end: 13 week, group: systemic.
Data set [2] relates to mouse. The settings on record: Subchronic dermal toxicity, cd1, Topical, dose end: 49 day, group: systemic.
Data set [3] deals with rat. The settings on record: Subchronic oral toxicity in rodents, sprague dawley, Gavage/Intubation, dose end: 13 week, group: systemic.
The test system of data set [4] is rat. The settings on record: Prenatal developmental toxicity study, sprague dawley, Dermal, Topical, dose end: 15 GD, group: maternal.
The test system of data set [5] is rat. The settings on record: Sub-acute repeat dose toxicity, fischer, Oral, Water, dose end: 14 day, group: systemic.
For data set [6], the system named is mouse. The settings on record: Subchronic oral toxicity in rodents, b6c3f1, Water, dose end: 13 week.
In data set [7] the test system is mouse. The settings on record: Sub-acute repeat dose toxicity, b6c3f1, Oral, Water, dose end: 14 day, group: systemic.
The subject of data set [8] is mouse. The settings on record: Combined chronic toxicity/carcinogenicity; b6c3f1; Oral; Water; dose end: 105 week; group: systemic; systemic / in life observation / body weight / body weight.
The subject of data set [9] is rat. The settings on record: Prenatal developmental toxicity study, sprague dawley, Oral, Gavage/Intubation, dose end: 15 GD.
In data set [10] the test system is rat. The settings on record: Subchronic oral toxicity in rodents, fischer, Water, dose end: 14 week, group: systemic.
Data set [11] concerns rat. The settings on record: Combined chronic toxicity/carcinogenicity, fischer, Oral, Water, dose end: 105 week, group: systemic.
The mark [12] stands for this setting: systemic / hematology / erythrocyte (rbc) count differential / erythrocyte (rbc) + systemic / in life observation / body weight / body ….
The mark [13] stands for this setting: systemic / urinalysis / ketones / ketones.
Where [14] appears, read: systemic / in life observation / clinical signs / erythema + systemic / pathology microscopic / skin / edema.
The mark [15] stands for this setting: systemic / in life observation / clinical signs / erythema + systemic / pathology microscopic / skin / edema + systemic / in life ….
The mark [16] stands for this setting: systemic / organ weight / kidney / relative to body weight + systemic / organ weight / liver / absolute + systemic / organ weight / liver / ….
[17] abbreviates: systemic / in life observation / body weight / body weight + systemic / in life observation / clinical signs / [other] + systemic / in life ….
Setting [18] is: systemic / in life observation / body weight / body weight + systemic / in life observation / clinical signs / red or crusty deposits around….
[19] abbreviates: group: maternal, reproductive / reproductive performance / estrous cycle / length.
The mark [20] stands for this setting: group: systemic, systemic / in life observation / clinical signs / dehydration + systemic / in life observation / clinical signs / feces, discoloration + ….
Where [21] appears, read: group: systemic, systemic / in life observation / water consumption / water consumption.
Where [22] appears, read: systemic / in life observation / body weight / body weight gain + systemic / organ weight / liver / absolute + systemic / organ weight / ….
Setting [23] is: group: developmental, systemic / in life observation / body weight / fetal weight.
Setting [24] is: group: maternal, systemic / in life observation / clinical signs / ataxia + systemic / in life observation / clinical signs / lethargy + systemic / in life ….
Where [25] appears, read: systemic / clinical chemistry / bile acids / bile acids + systemic / in life observation / body weight / body weight + systemic / in life ….
[26] abbreviates: systemic / in life observation / body weight / body weight + systemic / in life observation / body weight / body weight gain + systemic / ….
Where [27] appears, read: systemic / pathology microscopic / kidney / hyperplasia + systemic / pathology microscopic / kidney / nephropathy + systemic / in life ….

A word on the LOAEL: it is the lowest dose or exposure tested at which an adverse effect was seen. One may read the NOAEL as the highest tested level that showed no adverse finding. Take `CC(=O)CCc1ccc(O)cc1` [4-(4-Hydroxyphenyl)butan-2-one]: in data set [1] (setting [12]), the LOAEL was more than 678 mg/kg/day and the NOAEL was not below 678 mg/kg/day. Moreover, in [1] (setting [13]), the LEL is 65 mg/kg/day and the NEL is less than 65 mg/kg/day.
With `Cc1cc(O)cc(C)c1Cl` [4-Chloro-3,5-dimethylphenol], the LOAEL came out at 213 mg/kg/day in data set [2] (setting [14]) and 2500 mg/kg/day in [3] (setting [16]). The NOAEL was less than 213 mg/kg/day in data set [2] (setting [14]) and 1250 mg/kg/day in data set [3] (setting [16]). Further, the results for the LEL in data set [2] (setting [15]) and in data set [3] (systemic / in life observation / body weight / body weight gain + systemic / in life observation / clinical signs / salivation + systemic / …) were 213 mg/kg/day and 1250 mg/kg/day, respectively. In addition, the NEL in data set [2] (setting [15]) was less than 213 mg/kg/day; in [3] (systemic / in life observation / clinical signs / salivation), 25 mg/kg/day.
Take `c1ccc2c(c1)Oc1ccccc1[As]2O[As]1c2ccccc2Oc2ccccc21` [10,10'-Oxybisphenoxarsine]: in [4] (setting [17]), the LOAEL is more than 30 mg/kg/day and the NOAEL was not below 30 mg/kg/day. Also, in [4] (setting [18]), the LEL stood at 0.3 mg/kg/day and the NEL was less than 0.3 mg/kg/day.
On to `CC(CO)OC(C)CO.CC(O)COCC(C)O` (configuration not stated) [Dipropylene glycol], for which the LOAEL in data set [5] (systemic / in life observation / body weight / body weight + systemic / in life observation / body weight / body weight gain) is 11100 mg/kg/day; in data set [6] (setting [19]), more than 14700 mg/kg/day; in data set [6] (setting [20]), more than 11000 mg/kg/day; in [7] (systemic / in life observation / body weight / body weight gain) it was 10700 mg/kg/day; in [8] it was 1950 mg/kg/day; in data set [9] (setting [23]) it was more than 5000 mg/kg/day. Moreover, the LOAEL in data set [9] (setting [24]) is more than 5000 mg/kg/day; in data set [10] (setting [26]), 8950 mg/kg/day; in data set [11] (systemic / pathology microscopic / kidney / hyperplasia + systemic / pathology microscopic / kidney / nephropathy), 470 mg/kg/day. Further, the NOAEL in data set [5] (systemic / in life observation / body weight / body weight + systemic / in life observation / body weight / body weight gain + systemic / in…) was 5420 mg/kg/day; in data set [6] (setting [19]), not below 14700 mg/kg/day; in data set [6] (setting [20]) it was not below 11000 mg/kg/day; in data set [7] (setting [22]) it was 5330 mg/kg/day; in data set [8], 1040 mg/kg/day; in data set [9] (setting [23]), not below 5000 mg/kg/day. Moreover, the NOAEL in data set [9] (setting [24]) was not below 5000 mg/kg/day; in data set [10] (setting [26]) it was 3340 mg/kg/day; in data set [11] (setting [27]), 115 mg/kg/day. Further, the LEL in [5] (systemic / organ weight / liver / absolute + systemic / organ weight / liver / relative to body weight) is 2650 mg/kg/day; in [6] (setting [19]) it was 14700 mg/kg/day; in data set [6] (setting [21]), 715 mg/kg/day; in data set [7] (setting [22]), 10700 mg/kg/day; in [8], 1950 mg/kg/day; in [9] (setting [23]) it was 5000 mg/kg/day. For the same compound, the LEL is 2000 mg/kg/day in data set [9] (setting [24]), 425 mg/kg/day in data set [10] (setting [25]) and 470 mg/kg/day in data set [11] (systemic / pathology microscopic / kidney / hyperplasia + systemic / pathology microscopic / kidney / nephropathy + systemic / pathology …). Also, the NEL in data set [5] (systemic / organ weight / liver / absolute + systemic / organ weight / liver / relative to body weight + systemic / in life observation / …) is 1450 mg/kg/day; in data set [6] (setting [19]), 7430 mg/kg/day; in data set [6] (setting [21]) it was less than 715 mg/kg/day; in data set [7] (systemic / in life observation / clinical signs / abnormal gait + systemic / in life observation / clinical signs / emaciation + systemic / …), 5330 mg/kg/day; in data set [8], 1040 mg/kg/day; in [9] (setting [23]), 2000 mg/kg/day. The NEL in data set [9] (setting [24]) was 800 mg/kg/day; in data set [10] (setting [25]) it was less than 425 mg/kg/day; in [11] (setting [27]) it was 115 mg/kg/day.
